Measured values published in ChEMBL document CHEMBL5380848, “Novel Benzo Five-Membered Heterocycle Derivatives as P-Glycoprotein Inhibitors: Design, Synthesis, Molecular Docking, and Anti-Multidrug Resistance Activity” (J Med Chem, 2023).

Assays:
[1] = biological target: ATP-dependent translocase ABCB1 (Homo sapiens, UniProt P08183); experiment: Inhibition of P-gp-mediated multidrug resistance in doxorubicin-resistant human MCF7/ADR cells assessed as fold reversal of resistance by measuring doxorubicin IC50 incubated for 48 hrs by CCK-8 assay relative to doxorubicin IC50 in absence of compound; type: cell-based; conditions: nci-adr-res
Sequence of ATP-dependent translocase ABCB1 (P08183 whole entry): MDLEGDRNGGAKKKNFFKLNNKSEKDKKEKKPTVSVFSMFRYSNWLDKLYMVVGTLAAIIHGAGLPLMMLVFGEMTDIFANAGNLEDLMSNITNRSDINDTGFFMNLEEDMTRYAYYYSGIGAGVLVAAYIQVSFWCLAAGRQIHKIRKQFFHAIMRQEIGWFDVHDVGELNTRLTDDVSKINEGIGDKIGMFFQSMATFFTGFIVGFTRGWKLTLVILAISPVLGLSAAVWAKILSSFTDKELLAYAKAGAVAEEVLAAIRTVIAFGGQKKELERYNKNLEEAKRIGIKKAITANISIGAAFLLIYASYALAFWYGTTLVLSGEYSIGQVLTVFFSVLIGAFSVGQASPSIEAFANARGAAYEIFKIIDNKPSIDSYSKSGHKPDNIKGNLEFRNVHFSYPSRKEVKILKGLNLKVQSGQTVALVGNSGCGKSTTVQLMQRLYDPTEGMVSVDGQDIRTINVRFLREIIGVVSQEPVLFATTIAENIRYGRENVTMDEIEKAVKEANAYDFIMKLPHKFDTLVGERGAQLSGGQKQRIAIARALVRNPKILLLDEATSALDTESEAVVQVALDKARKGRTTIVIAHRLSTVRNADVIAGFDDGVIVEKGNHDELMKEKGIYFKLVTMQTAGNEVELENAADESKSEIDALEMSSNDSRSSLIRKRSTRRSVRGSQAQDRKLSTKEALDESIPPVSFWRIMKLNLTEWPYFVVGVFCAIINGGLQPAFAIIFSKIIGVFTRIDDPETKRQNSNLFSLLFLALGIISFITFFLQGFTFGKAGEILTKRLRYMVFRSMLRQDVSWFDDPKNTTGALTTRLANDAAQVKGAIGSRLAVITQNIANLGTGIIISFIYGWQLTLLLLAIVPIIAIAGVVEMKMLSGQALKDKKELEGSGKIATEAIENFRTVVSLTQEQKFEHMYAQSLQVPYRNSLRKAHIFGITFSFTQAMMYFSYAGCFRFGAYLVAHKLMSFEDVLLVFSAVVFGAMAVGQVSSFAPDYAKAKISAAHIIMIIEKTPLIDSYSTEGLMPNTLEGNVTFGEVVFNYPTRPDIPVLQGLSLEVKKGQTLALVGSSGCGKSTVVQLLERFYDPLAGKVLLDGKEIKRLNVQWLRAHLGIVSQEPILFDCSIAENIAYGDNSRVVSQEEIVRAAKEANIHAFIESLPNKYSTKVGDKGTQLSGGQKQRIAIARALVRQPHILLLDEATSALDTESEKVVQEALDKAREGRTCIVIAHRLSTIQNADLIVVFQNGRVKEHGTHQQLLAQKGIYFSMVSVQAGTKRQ

MCF7 = experiment: Cytotoxicity against human MCF7 cells assessed as inhibition rate at 5 uM measured after […] hrs by CCK-8 assay relative to control; type: functional
NCI/ADR-RES = experiment: Cytotoxicity against doxorubicin-resistant human MCF-7/ADR cells assessed as inhibition rate at 5 uM measured after […] hrs by CCK-8 assay relative to control; type: functional

SMILES | fold change (FC) [1] | inhibition at 5 µM (MCF7) [%] | inhibition at 5 µM (NCI/ADR-RES) [%]
COc1cc2c(cc1OC)CN(C(=O)c1cc3cc(-c4ccc(NC(=O)c5ccc(Cl)cc5)cc4)ccc3n1Cc1ccc(C)cc1)CC2 | 36.6 | 3.7 | 2.5
COc1cc(Cn2c(C(=O)N3CCc4cc(OC)c(OC)cc4C3)cc3cc(-c4ccc(NC(=O)c5ccc(Cl)cc5)cc4)ccc32)cc(OC)c1 | 41.5 | 3 | 11.2
COc1ccc(C(=O)Nc2ccc(-c3ccc4[nH]c(C(=O)N5CCc6cc(OC)c(OC)cc6C5)cc4c3)cc2)cc1 | 78 | 19.6 | 23.9
COc1cc2c(cc1OC)CN(C(=O)c1cc3cc(-c4ccc(NC(=O)c5ccccc5F)cc4)ccc3[nH]1)CC2 | 469.8 | 13.9 | 18.7
COc1cc2c(cc1OC)CN(C(=O)c1cc3cc(-c4ccc(NC(=O)c5ccc(Cl)cc5)cc4)ccc3n1Cc1cccc(Cl)c1)CC2 | 27.5 | 1.3 | 0.1
COc1cc2c(cc1OC)CN(C(=O)c1cc3cc(-c4ccc(NC(=O)c5ccc(C#N)cc5)cc4)ccc3[nH]1)CC2 | 39.1 | 10.7 | 19.5
COc1cc2c(cc1OC)CN(C(=O)c1cc3cc(-c4ccc(NC(=O)c5ccc(Cl)cc5)cc4)ccc3n1Cc1ccccc1F)CC2 | 92.1 | 5.3 | 14.3
COc1cc2c(cc1OC)CN(C(=O)c1cc3cc(-c4ccc(NC(=O)c5ccc(Cl)cc5)cc4)ccc3n1Cc1ccc(OC(F)(F)F)cc1)CC2 | 29.2 | 0.3 | 2.8
COc1cc2c(cc1OC)CN(C(=O)c1cc3cc(-c4ccc(NC(=O)c5ccc(Cl)cc5)cc4)ccc3n1Cc1cccc(Br)c1)CC2 | 118.6 | 7.9 | 21.6
COc1cc2c(cc1OC)CN(C(=O)c1cc3cc(-c4ccc(NC(=O)c5ccc(OC(C)(C)C)cc5)cc4)ccc3[nH]1)CC2 | 96.6 | 15.9 | 8.8
COc1cc2c(cc1OC)CN(C(=O)c1cc3cc(-c4ccc(NC(=O)c5ccc(Oc6ccccc6)cc5)cc4)ccc3[nH]1)CC2 | 23 | 19 | 15.5
COc1cc2c(cc1OC)CN(C(=O)c1cc3cc(-c4ccc(NC(=O)c5ccc(Cl)cc5)cc4)ccc3n1Cc1cccc(F)c1)CC2 | 37.6 | 1.7 | -2.6
COc1cc2c(cc1OC)CN(C(=O)c1cc3cc(-c4ccc(NC(=O)c5ccc(Cl)cc5)cc4)ccc3n1Cc1ccccc1Cl)CC2 | 30.3 | 13.4 | 18.6
COc1cc2c(cc1OC)CN(C(=O)c1cc3cc(-c4ccc(NC(=O)c5ccc(C(F)(F)F)cc5)cc4)ccc3[nH]1)CC2 | 1717 | 11.8 | 22
COc1cc2c(cc1OC)CN(C(=O)c1cc3cc(-c4ccc(NC(=O)c5ccc(Cl)cc5)cc4)ccc3n1Cc1ccccc1Br)CC2 | 36.1 | 18.2 | 17.1
